Data on 18 compounds can be found in patent US20240101584A1, “TARGETED DELIVERY OF 1,2,4,5 TETRAOXANE COMPOUNDS AND THEIR USES” (Westlake University, priority 2021, published 2024).

The subject of one assay is T47D cells. Put plainly: MTT viability assay, T47D cells. It is filed as cell-based. To be noted: for IC50: Homo sapiens, T47D, MTT, n = 3. Here is the method: (§1) The anticancer activities of the exemplary compounds listed in Example 1 were tested against human cervix Hela cells, mammary breast cancer MDA-MB-231 cells, human hepatocellular HepG2 cells, human colorectal HCT116 cells, mammary ductal T47D cells, non-cancerous NIH3T3 cells, dog's kidney MDCK cells, and mouse brain bEnd.3 cells, respectively.

In another assay the test system is MDCK cells. Put plainly: MTT viability assay, MDCK cells. Particulars: Canis lupus familiaris, MDCK, 48 h incubation, mean, n = 3, read-out: IC50 against MDCK cells. The class given is cell-based, dog. Here is the method:
as §1

A further assay deals with MDA-MB-231 cells. Briefly: MTT viability assay, MDA-MB-231 cells. The class given is cell-based. Particulars: for IC50: Homo sapiens. Here is the method: as §1
(Formazan colour is commonly taken as a measure of viable cells.)

The test system of a further assay is NIH3T3 cells. Put plainly: MTT viability assay, non-cancerous NIH3T3 cells. To be noted: Mus musculus, NIH3T3. It is filed as cell-based. Here is the method: as §1
Another assay concerns Hela cells. Briefly: MTT viability assay, Hela cells. It is filed as cell-based, human. To be noted: Homo sapiens, HeLa, 48 h incubation, mean, n = 3, read-out: IC50 against Hela cells. Here is the method:
as §1

In a further assay the test system is HCT116 cells. Put plainly: MTT viability assay, HCT116 cells. It is filed as cell-based, human. Particulars: for IC50: Homo sapiens, HCT-116. As to the method: as §1
Where [1] appears, read: 48 h incubation, mean, read-out: IC50 against T47D cells.
Where [2] appears, read: MDA-MB-231, 48 h, MTT, 48 h incubation, mean, n = 3, read-out: IC50 against MDA-MB-231 cells.
Where [3] appears, read: MTT, 48 h incubation, mean, n = 3, read-out: IC50 against NIH3T3 cells.
The mark [4] stands for this setting: MTT, 48 h incubation, mean, n = 3, read-out: IC50 against HCT116 cells.
The mark [5] stands for this setting: Table 12b, read-out: IC50 HCT116.
Where [6] appears, read: MDA-MB-231, Table 12b, read-out: IC50 MDA-MB-231.
The mark [7] stands for this setting: Table 12b, read-out: IC50 NIH3T3.

The structures appear in SMILES notation. Where two headings read alike, the source gives them in different places.

Regarding `CC(C)(C)C1CCC2(CC1)OOC1(CCC(OC(=O)NCCCN(Cc3ccccc3)Cc3ccccc3)CC1)OO2` (stereo not drawn) [Compound 37d, 12-(tert-butyl)-7,8,15,16-tetraoxadispiro[5.2.59.26]hexadecan-3-yl(3-(dibenzylamino)propyl)carbamate], the IC50 – broadly, the concentration that gives 50% inhibition – in the assay with T47D cells (setting [1]) is 10.4 µM; in the assay on MDCK cells it was above 100 µM; with MDA-MB-231 cells (setting [2]) it was 31.7 µM; with NIH3T3 cells (setting [3]), 30.3 µM; in the assay with Hela cells, 24.8 µM.
The matching figures for `CN(CCCNC(=O)OC1CCC2(CC1)OOC1(CCC(C(C)(C)C)CC1)OO2)Cc1ccccc1` (stereo not drawn) [Compound 37e, 12-(tert-butyl)-7,8,15,16-tetraoxadispiro[5.2.59.26]hexadecan-3-yl(3-(benzyl(methyl)amino)propyl)carbamate]: 1.2 µM, 19.3 µM, 1.7 µM, 1.9 µM and 1.7 µM.
With `CC(=O)OC[C@H]1O[C@@H](OCCCCNC(=O)OC2CCC3(CC2)OOC2(CCC(C(C)(C)C)CC2)OO3)[C@H](OC(C)=O)[C@@H](OC(C)=O)[C@@H]1OC(C)=O` (stereo partly drawn) [Compound 37h, (2R,3R,4S,5R,6R)-2-(acetoxymethyl)-6-(4-((((12-(tert-butyl)-7,8,15,16-tetraoxadispiro[5.2.59.26]hexadecan-3-yl)oxy)carbonyl)amino)butoxy)tetrahydro-2H-pyran-3,4,5-triyl triacetate], the IC50 stood at 0.6 ± 0.1 µM with T47D cells (Table 13, experimental data, 48 hrs, read-out: IC50 T47D); 0.6 ± 0.3 µM with HCT116 cells (Table 13, experimental data, MTT, 48 hrs, n = 3, read-out: IC50 HCT116); 0.4 ± 0.05 µM in the assay on MDA-MB-231 cells (MDA-MB-231, 48 h, Table 13, experimental data, MTT, 48 hrs, n = 3, read-out: IC50 MDA-MB-231); 4.6 ± 1.9 µM with NIH3T3 cells (Table 13, experimental data, MTT, 48 hrs, n = 3, read-out: IC50 NIH3T3). Also, the “selectivity index (IC50 of NIH3T3 divided by IC50 on T47D)” value with T47D cells (Table 13, value in bracket) is “(>7)”. In addition, in the assay on HCT116 cells (Table 13, value in bracket), the “selectivity index (IC50 of NIH3T3 divided by IC50 on HCT116)” value was “(>7)”. Besides, in the assay on MDA-MB-231 cells (Table 13, value in bracket), the “selectivity index (IC50 of NIH3T3 divided by IC50 on MDA-MB-231)” value is listed as “(>11)”.
In the case of `CC(C)(C)C1CCC2(CC1)OOC1(CCC(OC(=O)NCCC[N+](C)(C)C)CC1)OO2` (stereo not drawn) [Compound 49, 3-((((12-(tert-butyl)-7,8,15,16-tetraoxadispiro[5.2.59.26]hexadecan-3-yl)oxy)carbonyl)amino)-N,N,N-trimethylpropan-1-aminium iodide], the values for the IC50 with HCT116 cells (setting [4]), in the assay with MDA-MB-231 cells (setting [2]) and in the assay with NIH3T3 cells (setting [3]) were above 50 µM, 31.5 µM and above 50 µM, respectively.
Consider `C[n+]1ccc(CNC(=O)OC2CCC3(CC2)OOC2(CCC(C(C)(C)C)CC2)OO3)cc1` (stereo not drawn) [Compound 50, 4-(((((12-(tert-butyl)-7,8,15,16-tetraoxadispiro[5.2.59.26]hexadecan-3-yl)oxy)carbonyl)amino)methyl)-1-methylpyridin-1-ium iodide], for which the IC50 is above 25 µM in the assay on HCT116 cells (setting [4]), 19.2 µM with MDA-MB-231 cells (setting [2]) and 44.9 µM with NIH3T3 cells (setting [3]).
Regarding `CC(C)(C)C1CCC2(CC1)OOC1(CCC(OC(=O)N3CC[N+](C)(C)CC3)CC1)OO2` (stereo not drawn) [Compound 51, 4-(((12-(tert-butyl)-7,8,15,16-tetraoxadispiro[5.2.59.26]hexadecan-3-yl)oxy)carbonyl)-1,1-dimethylpiperazin-1-ium iodide], the IC50 with HCT116 cells (setting [4]) was above 50 µM; in the assay with MDA-MB-231 cells (setting [2]), 26.1 µM; in the assay on NIH3T3 cells (setting [3]), above 25 µM.
With `CCCC[N+](C)(CCCC)CCCNC(=O)OC1CCC2(CC1)OOC1(CCC(C(C)(C)C)CC1)OO2.[I-]` (stereo not drawn) [Compound 53, N-butyl-N-(3-((((12-(tert-butyl)-7,8,15,16-tetraoxadispiro[5.2.59.26]hexadecan-3-yl)oxy)carbonyl)amino)propyl)-N-methylbutan-1-aminium iodide], the IC50 in the assay with HCT116 cells (setting [4]) is 6.7 µM; in the assay on HCT116 cells (setting [5]), 6.7 ± 1.4 µM; in the assay on MDA-MB-231 cells (setting [2]) it was below 4 µM; with MDA-MB-231 cells (setting [6]), 3.7 ± 0.4 µM; in the assay on NIH3T3 cells (setting [3]), 33.7 µM; with NIH3T3 cells (setting [7]) it was 33.7 ± 3.4 µM. Besides, in the assay with HCT116 cells (Table 12b, value in bracket), the “selectivity index (IC50 of NIH3T3 divided by IC50 on HCT116)” value is on record as “(>5)”. The “selectivity index (IC50 of NIH3T3 divided by IC50 on MDA-MB-231)” value in the assay on MDA-MB-231 cells (Table 12b, value in bracket) is “(>9.1)”.
For `CC(C)(C)C1CCC2(CC1)OOC1(CCC(OC(=O)NCCC[N+](C)(C)Cc3ccccc3)CC1)OO2` (stereo not drawn) [Compound 54, N-benzyl-3-((((12-(tert-butyl)-7,8,15,16-tetraoxadispiro[5.2.59.26]hexadecan-3-yl)oxy)carbonyl)amino)-N,N-dimethylpropan-1-aminium iodide], the IC50 in the assay with HCT116 cells (setting [4]) is 26.2 µM; in the assay on MDA-MB-231 cells (setting [2]), 14.7 µM; in the assay with NIH3T3 cells (setting [3]), above 50 µM.
In the case of `CCCC[P+](CCCC)(CCCC)CCCNC(=O)OC1CCC2(CC1)OOC1(CCC(C(C)(C)C)CC1)OO2.[Br-]` (stereo not drawn) [Compound 56, tributyl(3-((((12-(tert-butyl)-7,8,15,16-tetraoxadispiro[5.2.59.26]hexadecan-3-yl)oxy)carbonyl)amino)propyl)phosphonium bromide], the IC50 is 2.7 µM in the assay with HCT116 cells (setting [4]); 2.7 ± 0.3 µM in the assay on HCT116 cells (setting [5]); 0.97 ± 0.1 µM in the assay with MDA-MB-231 cells (setting [6]); 11.1 µM in the assay with NIH3T3 cells (setting [3]); 11.1 ± 0.6 µM in the assay on NIH3T3 cells (setting [7]). The “selectivity index (IC50 of NIH3T3 divided by IC50 on HCT116)” value in the assay with HCT116 cells (Table 12b, value in bracket) is “(>4.1)”. Moreover, in the assay on MDA-MB-231 cells (Table 12b, value in bracket), the “selectivity index (IC50 of NIH3T3 divided by IC50 on MDA-MB-231)” value is recorded as “(>11.4)”.
Take `CC(C)(C)C1CCC2(CC1)OOC1(CCC(OC(=O)NCCC[N+](Cc3ccccc3)(Cc3ccccc3)Cc3ccccc3)CC1)OO2` (stereo not drawn) [Compound 57, N,N,N-tribenzyl-3-((((12-(tert-butyl)-7,8,15,16-tetraoxadispiro[5.2.59.26]hexadecan-3-yl)oxy)carbonyl)amino)propan-1-aminium iodide]: the 50% inhibitory concentration (IC50) with MDA-MB-231 cells (setting [2]) came out at 2.9 µM; with NIH3T3 cells (setting [3]) it was 9.8 µM.
Regarding `OC1CCC2(CC1)OOC1(CCCCC1)OO2` [Compound 59, 7,8,15,16-tetraoxadispiro[5.2.59.26]hexadecan-3-ol], the IC50 in the assay with MDA-MB-231 cells (setting [2]) was above 50 µM.
Still for that read-out and setting: the result for `C[N+](CCCNC(=O)OC1CCC2(CC1)OOC1(CCCCC1)OO2)(Cc1ccccc1)Cc1ccccc1` [Compound 59a, 3-((((7,8,15,16-tetraoxadispiro[5.2.59.26]hexadecan-3-yl)oxy)carbonyl)amino)-N,N-dibenzyl-N-methylpropan-1-aminium iodide] reads 10.4 µM.
Regarding `O=C(NCCC[P+](c1ccccc1)(c1ccccc1)c1ccccc1)OC1CCC2(CC1)OOC1(CCCCC1)OO2` [Compound 59b, (3-((((7,8,15,16-tetraoxadispiro[5.2.59.26]hexadecan-3-yl)oxy)carbonyl)amino)propyl)triphenylphosphonium bromide], in the assay on MDA-MB-231 cells (setting [2]), the IC50 worked out at 1.9 µM.
Regarding `C#CCCNC(=O)OCC(C)(C)C1CCC2(CC1)OOC1(CCC(O)CC1)OO2` [Compound alk-L-37, 2-(12-hydroxy-7,8,15,16-tetraoxadispiro[5.2.59.26]hexadecan-3-yl)-2-methylpropyl but-3-yn-1-ylcarbamate], the IC50 in the assay with MDA-MB-231 cells (setting [2]) turned out to be 24.5 µM.
As to `C#CCCNC(=O)OCC(C)(C)C1CCC2(CC1)OOC1(CCC(OC(=O)NCCC[P+](c3ccccc3)(c3ccccc3)c3ccccc3)CC1)OO2` [Compound alk-L-37b, (3-((((12-(1-((but-3-yn-1-ylcarbamoyl)oxy)-2-methylpropan-2-yl)-7,8,15,16-tetraoxadispiro[5.2.59.26]hexadecan-3-yl)oxy)carbonyl)amino)propyl)triphenylphosphonium bromide], the figures for the IC50 in the assay on MDA-MB-231 cells (setting [2]) and in the assay with NIH3T3 cells (setting [3]) were 2.1 µM and 12.9 µM, respectively.
Consider `C#CCCNC(=O)OCC(C)(C)C1CCC2(CC1)OOC1(CCC(OC(=O)NCCC[N+](C)(Cc3ccccc3)Cc3ccccc3)CC1)OO2` [Compound alk-L-48, N,N-dibenzyl-3-((((12-(1-((but-3-yn-1-ylcarbamoyl)oxy)-2-methylpropan-2-yl)-7,8,15,16-tetraoxadispiro[5.2.59.26]hexadecan-3-yl)oxy)carbonyl)amino)-N-methylpro pan-1-aminium iodide], for which the IC50 in the assay on MDA-MB-231 cells (setting [2]) was found to be 8.8 µM; with NIH3T3 cells (setting [3]) it was 18.2 µM.
In the same order, the values of `C#CCCN(CCC[P+](c1ccccc1)(c1ccccc1)c1ccccc1)C(=O)OC1CCC2(CC1)OOC1(CCC(C(C)(C)C)CC1)OO2` (stereo not drawn) [Compound alk-R-37b, (3-(but-3-yn-1-yl(((12-(tert-butyl)-7,8,15,16-tetraoxadispiro[5.2.59.26]hexadecan-3-yl)oxy)carbonyl)amino)propyl)triphenylphosphonium bromide] are 2.3 µM and 9.7 µM.
In the case of `C#CCCN(CCC[N+](C)(Cc1ccccc1)Cc1ccccc1)C(=O)OC1CCC2(CC1)OOC1(CCC(C(C)(C)C)CC1)OO2.[I-]` (stereo not drawn) [Compound alk-R-48, N,N-dibenzyl-3-(but-3-yn-1-yl(((12-(tert-butyl)-7,8,15,16-tetraoxadispiro[5.2.59.26]hexadecan-3-yl)oxy)carbonyl)amino)-N-methylpropan-1-aminium iodide], the results for the IC50 with MDA-MB-231 cells (setting [6]), in the assay on NIH3T3 cells (setting [3]) and in the assay on NIH3T3 cells (setting [7]) were 0.8 ± 0.2 µM, 10.8 µM and 10.8 ± 3.7 µM, respectively. Further, the “selectivity index (IC50 of NIH3T3 divided by IC50 on MDA-MB-231)” value in the assay with MDA-MB-231 cells (Table 12b, value in bracket) was “(>13)”.
